Patent US10155004B2, “17-hydroxy-17-pentafluoroethyl-estra-4,9(10)-dien-11-aryl derivatives, method of production thereof and use thereof for the treatment of diseases” (BAYER INTELLECTUAL PROPERTY GMBH, priority 2009, dated 2018)

System: cardiovascular system
Assay: Action on the cardiovascular system (incl. ECG) of anaesthetized beagle dogs
Type: in vivo
Description: EXAMPLE 20 INVESTIGATION OF THE ACTION ON THE CARDIOVASCULAR SYSTEM (INCL. ECG) OF ANAESTHETIZED BEAGLE DOGS
(11β,17β)-17-Hydroxy-11-[4-(methylsulphonyl)phenyl]-17-(pentafluoroethy)estra-4,9-dien-3-one, dissolved in a mixture of PEG 400 and HP-β-CD (60% PEG 400, 40% HP-β-CD 30%), was administered intravenously to anaesthetized female beagle dogs. The body weight of the dogs was >9 kg. 3 dogs were treated per group and additionally 3 dogs in the control group. 0.1; 0.33 and 1 mg/kg of the substance was administered in 3 consecutive infusions, in each case over a period of 30 minutes. The maximum amount of vehicle was 0.4 ml per kg for 30 minutes. Blood samples were taken from the animals at various time points. The highest plasma level (average for all 3 animals) was 1650 ng/ml at the end of the third infusion.

With `C[C@]12C[C@H](c3ccc(S(C)(=O)=O)cc3)C3=C4CCC(=O)C=C4CC[C@H]3[C@@H]1CC[C@@]2(O)C(F)(F)C(F)(F)F` [Example 4, (11β,17β)-17-Hydroxy-11-[4-(methylsulphonyl)phenyl]-17-(pentafluoroethyl)estra-4,9-dien-3-one] the “highest plasma level (average for all 3 animals)” value (end of third infusion, i.v. 0.1, 0.33 and 1 mg/kg consecutive 30 minute infusions) was 1650 ng/mL and the “effects on the cardiovascular system (pulmonary artery pressure, systemic arterial blood pressure, heart rate, ECG)” value (i.v. 0.1, 0.33 and 1 mg/kg, in comparison with the control) was “no biologically relevant effects”.
